Assay results from US12527774B2, “Estrogen-related receptor alpha modulators” (LEAD PHARMA HOLDING B.V., priority 2019, dated 2026).

Target: ERRα ligand binding domain (ERRα-LBD) (Homo sapiens (Human), UniProt P11474)
Assay: ERRα AlphaScreen Assay
Format: biochemical
Conditions: disruption of binding of ERRα-LBD protein to biotin-PGC1α-3 co-activator peptide; for IC50: read-out: mean pIC50 (converted)
Procedure, shortened: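 Disruption of co-activator binding read by AlphaScreen: compounds in triplicate, 1% DMSO, Tris pH 7.5 buffer, room temperature. Bacterially expressed 6His-SUMO-ERRα-LBD at 0.81 nM with beads for 1 h, then 15 nM biotinylated PGC1α peptide for 2 h. IC50 from four-parameter fits, averaged as pIC50.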

Chain of ERRα ligand binding domain (ERRα-LBD) (P11474 193-421): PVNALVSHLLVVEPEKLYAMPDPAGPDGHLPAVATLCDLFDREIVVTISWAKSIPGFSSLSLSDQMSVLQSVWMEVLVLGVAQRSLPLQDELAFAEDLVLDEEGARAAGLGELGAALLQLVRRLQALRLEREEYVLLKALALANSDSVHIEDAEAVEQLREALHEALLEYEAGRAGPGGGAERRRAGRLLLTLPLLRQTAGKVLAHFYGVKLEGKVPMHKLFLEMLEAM

| SMILES | IC50 [nM] | mean pIC50 |
| --- | --- | --- |
| COc1cc(C2CC(=O)Nc3n[nH]nc32)ccc1OCc1ccc(N)cc1C(F)(F)F (single isomer, unassigned; (-)) [Example 206, (−)-7-(4-{[4-amino-2-(trifluoromethyl)phenyl]methoxy}-3-methoxyphenyl)-2H,4H,5H,6H,7H-[1,2,3]triazolo[4,5-b]pyridin-5-one] | 10 to 100 | – |
| COc1cc(C2CC(=O)Nc3n[nH]cc32)ccc1OCc1ccc(N)cc1C(F)(F)F (stereo not drawn) [Example 135, 4-(4-{[4-amino-2-(trifluoromethyl)phenyl]methoxy}-3-methoxyphenyl)-2H,4H,5H,6H, 7H-pyrazolo[3,4-b]pyridin-6-one] | – | ≥ 8 |
| COc1cc(C2CC(=O)Nc3n[nH]cc32)ccc1OCc1cc(C(F)(F)F)ccc1C(F)(F)F (stereo not drawn) [Example 14, 4-(4-{[2,5-bis(trifluoromethyl)phenyl]methoxy}-3-methoxyphenyl)-2H,4H,5H,6H, 7H-pyrazolo[3,4-b]pyridin-6-one] | 10 to 100 | – |
| COc1cc(C2CC(=O)Nc3c[nH]nc32)ccc1OCc1ccccc1C(F)(F)F (stereo not drawn) [Example 87, 7-(3-methoxy-4-{[2-(trifluoromethyl)phenyl]methoxy}phenyl)-2H,4H,5H,6H, 7H-pyrazolo[4,3-b]pyridin-5-one] | 10 to 100 | – |
| COc1cc(C2CC(=O)Nc3n[nH]cc32)ccc1OCc1cccc(Cl)c1Cl (stereo not drawn) [Example 22, 4-{4-[(2,3-dichlorophenyl)methoxy]-3-methoxyphenyl}-2H,4H,5H,6H,7H-pyrazolo[3,4-b]pyridin-6-one] | 100 to 1000 | – |
| O=C1CC(c2ccc(OCc3ccccc3C(F)(F)F)c(Br)c2)c2c[nH]nc2N1 (stereo not drawn) [Example 70, 4-(3-bromo-4-{[2-(trifluoromethyl)phenyl]methoxy}phenyl)-2H,4H,5H,6H, 7H-pyrazolo[3,4-b]pyridin-6-one] | 10 to 100 | – |
| COc1cc(C2CC(=O)Nc3n[nH]cc32)ccc1COc1ccc(C)cc1C (stereo not drawn) [Example 111, 4-{4-[(2,4-dimethylphenoxy)methyl]-3-methoxyphenyl}-2H,4H,5H,6H,7H-pyrazolo[3,4-b]pyridin-6-one] | 10 to 100 | – |
| COc1ccc([N+](=O)[O-])cc1COc1ccc(-c2cc(=O)[nH]c3n[nH]cc23)cc1OC [Example 182, 4-{3-methoxy-4-[(2-methoxy-5-nitrophenyl)methoxy]phenyl}-2H,6H,7H-pyrazolo[3,4-b]pyridin-6-one] | 10 to 100 | – |
| COc1cc(C2CC(=O)Nc3n[nH]cc32)ccc1COc1ccc(C(F)(F)F)cc1C(F)F (single isomer, unassigned; (+)) [Example 215, (+)-4-(4-{[2-(difluoromethyl)-4-(trifluoromethyl)phenoxy]methyl}-3-methoxyphenyl)-2H,4H,5H,6H,7H-pyrazolo[3,4-b]pyridin-6-one] | 100 to 1000 | – |
| NC(=O)c1cc(C2CC(=O)Nc3n[nH]cc32)ccc1OCc1ccccc1C(F)(F)F (stereo not drawn) [Example 130, 5-{6-oxo-2H,4H,5H,6H, 7H-pyrazolo[3,4-b]pyridin-4-yl}-2-{[2-(trifluoromethyl)phenyl]methoxy}benzamide] | 100 to 1000 | – |
| COc1cc(C2CC(=O)Nc3n[nH]cc32)c(F)cc1OCc1cccc(F)c1C(F)(F)F (stereo not drawn) [Example 77, 4-(2-fluoro-4-{[3-fluoro-2-(trifluoromethyl)phenyl]methoxy}-5-methoxyphenyl)-2H,4H,5H,6H,7H-pyrazolo[3,4-b]pyridin-6-one] | 100 to 1000 | – |
| COc1cc(-c2cc(=O)[nH]c3n[nH]cc23)ccc1OCc1ccc(N)cc1C(F)(F)F [Example 173, 4-(4-{[4-amino-2-(trifluoromethyl)phenyl]methoxy}-3-methoxyphenyl)-2H,6H,7H-pyrazolo[3,4-b]pyridin-6-one] | – | ≥ 8 |
| C#Cc1ccccc1COc1ccc(C2CC(=O)Nc3n[nH]cc32)cc1OC (stereo not drawn) [Example 44, 4-{4-[(2-ethynylphenyl)methoxy]-3-methoxyphenyl}-2H,4H,5H,6H,7H-pyrazolo[3,4-b]pyridin-6-one] | 10 to 100 | – |
| COc1cc(C2CC(=O)Nc3n[nH]cc32)ccc1OCc1cccc2cccnc12 (stereo not drawn) [Example 47, 4-{3-methoxy-4-[(quinolin-8-yl)methoxy]phenyl}-2H,4H,5H,6H, 7H-pyrazolo[3,4-b]pyridin-6-one] | 100 to 1000 | – |
| O=C1CC(c2ccc(COc3ccccc3C(F)(F)F)c(OC(F)(F)F)c2)c2c[nH]nc2N1 (stereo not drawn) [Example 108, 4-[3-(trifluoromethoxy)-4-{[2-(trifluoromethyl)phenoxy]methyl}phenyl]-2H,4H,5H,6H,7H-pyrazolo[3,4-b]pyridin-6-one] | 10 to 100 | – |
| O=C1CC(c2ccc(OCc3ccccc3C(F)(F)F)c(Cl)c2)c2c[nH]nc2N1 (stereo not drawn) [Example 72, 4-(3-chloro-4-{[2-(trifluoromethyl)phenyl]methoxy}phenyl)-2H,4H,5H,6H, 7H-pyrazolo[3,4-b]pyridin-6-one] | 10 to 100 | – |
| COc1cc(C2CC(=O)Nc3n[nH]cc32)ccc1OCc1ccc(O)cc1C(F)(F)F (single isomer, unassigned; (+)) [Example 209, (+)-4-(4-{[4-hydroxy-2-(trifluoromethyl)phenyl]methoxy}-3-methoxyphenyl)-2H,4H,5H,6H,7H-pyrazolo[3,4-b]pyridin-6-one] | 10 to 100 | – |

| SMILES | IC50 [nM] | mean pIC50 |
| --- | --- | --- |
| COc1cc(C2CC(=O)Nc3n[nH]cc32)ccc1OCc1ccc(C(C)(C)CO)cc1C(F)(F)F (stereo not drawn) [Example 152, 4-(4-{[4-(1-hydroxy-2-methylpropan-2-yl)-2-(trifluoromethyl)phenyl]methoxy}-3-methoxyphenyl)-2H,4H,5H,6H, 7H-pyrazolo[3,4-b]pyridin-6-one] | 10 to 100 | – |
| Cc1cc(C2CC(=O)Nc3n[nH]cc32)ccc1OCc1ccccc1C(F)(F)F (stereo not drawn) [Example 73, 4-(3-methyl-4-{[2-(trifluoromethyl)phenyl]methoxy}phenyl)-2H,4H,5H,6H,7H-pyrazolo[3,4-b]pyridin-6-one] | 10 to 100 | – |
| COc1cc(C2CC(=O)Nc3n[nH]cc32)ccc1OCc1ccc(CC(=O)O)cc1C(F)(F)F (stereo not drawn) [Example 151, 2-{4-[(2-methoxy-4-{6-oxo-2H,4H,5H,6H, 7H-pyrazolo[3,4-b]pyridin-4-yl}phenoxy)methyl]-3-(trifluoromethyl)phenyl}acetic acid] | 100 to 1000 | – |
| COc1cc(C2CC(=O)Nc3n[nH]cc32)ccc1OCc1ccccc1Br (stereo not drawn) [Example 4, 4-{4-[(2-bromophenyl)methoxy]-3-methoxyphenyl}-2H,4H,5H,6H, 7H-pyrazolo[3,4-b]pyridin-6-one] | 10 to 100 | – |
| COc1cc(C2CC(=O)Nc3c[nH]cc32)ccc1COc1ccc(C(F)(F)F)cc1C(F)(F)F (stereo not drawn) [Example 190, 4-(4-{[2,4-bis(trifluoromethyl)phenoxy]methyl}-3-methoxyphenyl)-1H,2H,3H,4H, 6H-pyrrolo[3,4-b]pyridin-2-one] | 10 to 100 | – |
| COc1ccccc1COc1ccc(-c2cc(=O)[nH]c3n[nH]cc23)cc1OC [Example 171, 4-{3-methoxy-4-[(2-methoxyphenyl)methoxy]phenyl}-2H,6H, 7H-pyrazolo[3,4-b]pyridin-6-one] | 10 to 100 | – |
| CCOC(=O)c1ccccc1COc1ccc(C2CC(=O)Nc3n[nH]cc32)cc1OC (stereo not drawn) [Example 48, ethyl 2-[(2-methoxy-4-{6-oxo-2H,4H,5H, 6H,7H-pyrazolo[3,4-b]pyridin-4-yl}phenoxy)methyl]benzoate] | 100 to 1000 | – |
| COc1cc(C2CC(=O)Nc3n[nH]cc32)ccc1OCc1ccc(S(C)(=O)=O)cc1C(F)(F)F (stereo not drawn) [Example 37, 4-(4-{[4-methanesulfonyl-2-(trifluoromethyl)phenyl]methoxy}-3-methoxyphenyl)-2H,4H,5H,6H,7H-pyrazolo[3,4-b]pyridin-6-one] | 100 to 1000 | – |
| O=C1CC(c2ccc(OCc3ccccc3C(F)(F)F)c(OC(F)(F)F)c2)c2c[nH]nc2N1 (stereo not drawn) [Example 69, 4-[3-(trifluoromethoxy)-4-{[2-(trifluoromethyl)phenyl]methoxy}phenyl]-2H,4H,5H, 6H, 7H-pyrazolo[3,4-b]pyridin-6-one] | 10 to 100 | – |
| COc1cc(C2CC(=O)Nc3n[nH]cc32)ccc1OCc1ccc(O)cc1C(F)(F)F (stereo not drawn) [Example 154, 4-(4-{[4-hydroxy-2-(trifluoromethyl)phenyl]methoxy}-3-methoxyphenyl)-2H,4H,5H,6H, 7H-pyrazolo[3,4-b]pyridin-6-one] | – | ≥ 8 |
| O=C1CC(c2ccc(OCc3ccccc3C(F)(F)F)c([N+](=O)[O-])c2)c2c[nH]nc2N1 (stereo not drawn) [Example 67, 4-(3-nitro-4-{[2-(trifluoromethyl)phenyl]methoxy}phenyl)-2H,4H,5H,6H,7H-pyrazolo[3,4-b]pyridin-6-one] | 100 to 1000 | – |
| CN(C)c1cc(OCc2ccccc2C(F)(F)F)ccc1C1CC(=O)Nc2n[nH]cc21 (stereo not drawn) [Example 162, 4-[2-(dimethylamino)-4-{[2-(trifluoromethyl)phenyl]methoxy}phenyl]-2H,4H,5H,6H, 7H-pyrazolo[3,4-b]pyridin-6-one] | 100 to 1000 | – |
| COc1cc(C2CC(=O)Nc3n[nH]cc32)ccc1OCc1ccc(CC(C)(C)O)cc1C(F)(F)F (stereo not drawn) [Example 153, 4-(4-{[4-(2-hydroxy-2-methylpropyl)-2-(trifluoromethyl)phenyl]methoxy}-3-methoxyphenyl)-2H,4H,5H,6H,7H-pyrazolo[3,4-b]pyridin-6-one] | 10 to 100 | – |
| O=C1CC(c2ccc(COc3ccc(F)cc3C(F)(F)F)c(OC(F)(F)F)c2)c2c[nH]nc2N1 (stereo not drawn) [Example 110, 4-(4-{[4-fluoro-2-(trifluoromethyl)phenoxy]methyl}-3-(trifluoromethoxy)phenyl)-2H,4H,5H,6H, 7H-pyrazolo[3,4-b]pyridin-6-one] | 100 to 1000 | – |
| COC(=O)c1cc(C2CC(=O)Nc3n[nH]cc32)ccc1OCc1ccccc1C(F)(F)F (stereo not drawn) [Example 65, methyl 5-{6-oxo-2H,4H,5H,6H,7H-pyrazolo[3,4-b]pyridin-4-yl}-2-{[2-(trifluoromethyl)phenyl]methoxy}benzoate] | 10 to 100 | – |
| COc1cc(C2CC(=O)Nc3n[nH]cc32)ccc1OCc1cccc(OC)c1OC (stereo not drawn) [Example 39, 4-{4-[(2,3-dimethoxyphenyl)methoxy]-3-methoxyphenyl}-2H,4H,5H,6H,7H-pyrazolo[3,4-b]pyridin-6-one] | 100 to 1000 | – |
